# Test results published in publication PMC2990605 (British Journal of Cancer, 2010).
# Assay: Adverse events (CTCAEv3.0), worst grade per patient regardless of relation, and laboratory parameters
# Type: in vivo
# Settings: for Alanine aminotransferase increased, CTCAE grade 5, patients / Alopecia, CTCAE grade 5, patients / Anaemia, CTCAE grade 5, patients / Anorexia, CTCAE grade 5, patients / Arthralgia, CTCAE grade 5, patients / Back pain, CTCAE grade 5, patients / Blood bilirubin, CTCAE grade 5, patients / Bronchitis, CTCAE grade 5, patients / Constipation, CTCAE grade 5, patients / Cough, CTCAE grade 5, patients / Cystitis, CTCAE grade 5, patients / Dehydration, CTCAE grade 5, patients / Diabetes mellitus, CTCAE grade 5, patients / Diarrhoea, CTCAE grade 5, patients / Dizziness, CTCAE grade 5, patients / Drug hypersensitivity, CTCAE grade 5, patients / Dry skin, CTCAE grade 5, patients / Dyspnoea, CTCAE grade 5, patients / Eosinophilic myocarditis, CTCAE grade 5, patients / Erythema, CTCAE grade 5, patients / Fatigue, CTCAE grade 5, patients / Gastric dilatation, CTCAE grade 5, patients / General physical health deterioration, CTCAE grade 5, patients / Hypercalcaemia, CTCAE grade 5, patients / Hyperglycaemia, CTCAE grade 5, patients / Hyperhidrosis, CTCAE grade 5, patients / Leukopenia, CTCAE grade 5, patients / Malaise, CTCAE grade 5, patients / Mucosal inflammation, CTCAE grade 5, patients / Myalgia, CTCAE grade 5, patients / Nasopharyngitis, CTCAE grade 5, patients / Nausea, CTCAE grade 5, patients / Neutropenia, CTCAE grade 5, patients / Oedema peripheral, CTCAE grade 5, patients / Oedema, CTCAE grade 5, patients / Peripheral sensory neuropathy, CTCAE grade 5, patients / Pollakiuria, CTCAE grade 5, patients / Pruritus, CTCAE grade 5, patients / Pulmonary embolism, CTCAE grade 5, patients / Pyrexia, CTCAE grade 5, patients / Rash, CTCAE grade 5, patients / Spinal cord compression, CTCAE grade 5, patients / Tumour pain, CTCAE grade 5, patients / Urinary tract infection, CTCAE grade 5, patients / Vomiting, CTCAE grade 5, patients / γ-glutamyltransferase increased, CTCAE grade 5, patients: with paclitaxel
# Procedure: Toxicity was evaluated according to common toxicity criteria for adverse events (CTCAEv3.0). The MTD was defined as the dose level(s) at which at least two out of six patients developed DLT.
# Toxicity assessment, haematology and clinical biochemistry were performed at baseline and weekly during the study. Physical and ECOG performance status were recorded at baseline and before the next cycle.
compound,measurement,setting,value
CC(C)C[C@@H](C(=O)N[C@H](C(=O)OC1CCCC1)c1ccccc1)[C@H](O)C(=O)NO [tosedostat],"Alanine aminotransferase increased, CTCAE grade 5, patients",all cycles,0
same,"Alopecia, CTCAE grade 5, patients",all cycles,0
same,"Anaemia, CTCAE grade 5, patients",all cycles,0
same,"Anorexia, CTCAE grade 5, patients",all cycles,0
same,"Arthralgia, CTCAE grade 5, patients",all cycles,0
same,"Back pain, CTCAE grade 5, patients",all cycles,0
same,"Blood bilirubin, CTCAE grade 5, patients",all cycles,0
same,"Bronchitis, CTCAE grade 5, patients",all cycles,0
same,"Constipation, CTCAE grade 5, patients",all cycles,0
same,"Cough, CTCAE grade 5, patients",all cycles,0
same,"Cystitis, CTCAE grade 5, patients",all cycles,0
same,"Dehydration, CTCAE grade 5, patients",all cycles,0
same,"Diabetes mellitus, CTCAE grade 5, patients",all cycles,0
same,"Diarrhoea, CTCAE grade 5, patients",all cycles,0
same,"Dizziness, CTCAE grade 5, patients",all cycles,0
same,"Drug hypersensitivity, CTCAE grade 5, patients",all cycles,0
same,"Dry skin, CTCAE grade 5, patients",all cycles,0
same,"Dyspnoea, CTCAE grade 5, patients",all cycles,0
same,"Eosinophilic myocarditis, CTCAE grade 5, patients",all cycles,1
same,"Erythema, CTCAE grade 5, patients",all cycles,0
same,"Fatigue, CTCAE grade 5, patients",all cycles,0
same,"Gastric dilatation, CTCAE grade 5, patients",all cycles,0
same,"General physical health deterioration, CTCAE grade 5, patients",all cycles,0
same,"Hypercalcaemia, CTCAE grade 5, patients",all cycles,0
same,"Hyperglycaemia, CTCAE grade 5, patients",all cycles,0
same,"Hyperhidrosis, CTCAE grade 5, patients",all cycles,0
same,"Leukopenia, CTCAE grade 5, patients",all cycles,0
same,"Malaise, CTCAE grade 5, patients",all cycles,0
same,"Mucosal inflammation, CTCAE grade 5, patients",all cycles,0
same,"Myalgia, CTCAE grade 5, patients",all cycles,0
same,"Nasopharyngitis, CTCAE grade 5, patients",all cycles,0
same,"Nausea, CTCAE grade 5, patients",all cycles,0
same,"Neutropenia, CTCAE grade 5, patients",all cycles,0
same,"Oedema peripheral, CTCAE grade 5, patients",all cycles,0
same,"Oedema, CTCAE grade 5, patients",all cycles,0
same,"Peripheral sensory neuropathy, CTCAE grade 5, patients",all cycles,0
same,"Pollakiuria, CTCAE grade 5, patients",all cycles,0
same,"Pruritus, CTCAE grade 5, patients",all cycles,0
same,"Pulmonary embolism, CTCAE grade 5, patients",all cycles,0
same,"Pyrexia, CTCAE grade 5, patients",all cycles,0
same,"Rash, CTCAE grade 5, patients",all cycles,0
same,"Spinal cord compression, CTCAE grade 5, patients",all cycles,0
same,"Tumour pain, CTCAE grade 5, patients",all cycles,0
same,"Urinary tract infection, CTCAE grade 5, patients",all cycles,0
same,"Vomiting, CTCAE grade 5, patients",all cycles,0
same,"γ-glutamyltransferase increased, CTCAE grade 5, patients",all cycles,0
same,"Alanine aminotransferase increased, CTCAE grade 5, patients",first 21 days,0
same,"Alopecia, CTCAE grade 5, patients",first 21 days,0
same,"Anaemia, CTCAE grade 5, patients",first 21 days,0
same,"Anorexia, CTCAE grade 5, patients",first 21 days,0
same,"Arthralgia, CTCAE grade 5, patients",first 21 days,0
same,"Back pain, CTCAE grade 5, patients",first 21 days,0
same,"Blood bilirubin, CTCAE grade 5, patients",first 21 days,0
same,"Bronchitis, CTCAE grade 5, patients",first 21 days,0
same,"Constipation, CTCAE grade 5, patients",first 21 days,0
same,"Cough, CTCAE grade 5, patients",first 21 days,0
same,"Cystitis, CTCAE grade 5, patients",first 21 days,0
same,"Dehydration, CTCAE grade 5, patients",first 21 days,0
same,"Diabetes mellitus, CTCAE grade 5, patients",first 21 days,0
same,"Diarrhoea, CTCAE grade 5, patients",first 21 days,0
same,"Dizziness, CTCAE grade 5, patients",first 21 days,0
same,"Drug hypersensitivity, CTCAE grade 5, patients",first 21 days,0
same,"Dry skin, CTCAE grade 5, patients",first 21 days,0
same,"Dyspnoea, CTCAE grade 5, patients",first 21 days,0
same,"Eosinophilic myocarditis, CTCAE grade 5, patients",first 21 days,0
same,"Erythema, CTCAE grade 5, patients",first 21 days,0
same,"Fatigue, CTCAE grade 5, patients",first 21 days,0
same,"Gastric dilatation, CTCAE grade 5, patients",first 21 days,0
same,"General physical health deterioration, CTCAE grade 5, patients",first 21 days,0
same,"Hypercalcaemia, CTCAE grade 5, patients",first 21 days,0
same,"Hyperglycaemia, CTCAE grade 5, patients",first 21 days,0
same,"Hyperhidrosis, CTCAE grade 5, patients",first 21 days,0
same,"Leukopenia, CTCAE grade 5, patients",first 21 days,0
same,"Malaise, CTCAE grade 5, patients",first 21 days,0
same,"Mucosal inflammation, CTCAE grade 5, patients",first 21 days,0
same,"Myalgia, CTCAE grade 5, patients",first 21 days,0
same,"Nasopharyngitis, CTCAE grade 5, patients",first 21 days,0
same,"Nausea, CTCAE grade 5, patients",first 21 days,0
same,"Neutropenia, CTCAE grade 5, patients",first 21 days,0
same,"Oedema peripheral, CTCAE grade 5, patients",first 21 days,0
same,"Oedema, CTCAE grade 5, patients",first 21 days,0
same,"Peripheral sensory neuropathy, CTCAE grade 5, patients",first 21 days,0
same,"Pollakiuria, CTCAE grade 5, patients",first 21 days,0
same,"Pruritus, CTCAE grade 5, patients",first 21 days,0
same,"Pulmonary embolism, CTCAE grade 5, patients",first 21 days,0
same,"Pyrexia, CTCAE grade 5, patients",first 21 days,0
same,"Rash, CTCAE grade 5, patients",first 21 days,0
same,"Spinal cord compression, CTCAE grade 5, patients",first 21 days,0
same,"Tumour pain, CTCAE grade 5, patients",first 21 days,0
same,"Urinary tract infection, CTCAE grade 5, patients",first 21 days,0
same,"Vomiting, CTCAE grade 5, patients",first 21 days,0
same,"γ-glutamyltransferase increased, CTCAE grade 5, patients",first 21 days,0
same,"Alanine aminotransferase increased, CTCAE grade 1, patients","human, in vivo",1
same,"Alanine aminotransferase increased, CTCAE grade 2, patients","human, in vivo",1
same,"Alanine aminotransferase increased, CTCAE grade 3, patients","human, in vivo",1
same,"Alanine aminotransferase increased, CTCAE grade 4, patients","human, in vivo",0
same,"Alanine aminotransferase increased, patients with events, %","human, in vivo",14%
same,"Alopecia, CTCAE grade 2, patients","human, in vivo",20
same,"Alopecia, CTCAE grade 3, patients","human, in vivo",0
same,"Alopecia, CTCAE grade 4, patients","human, in vivo",0
same,"Alopecia, patients with events, %","human, in vivo",95%
same,"Anaemia, CTCAE grade 1, patients","human, in vivo",1
same,"Anaemia, CTCAE grade 4, patients","human, in vivo",0
same,"Anorexia, CTCAE grade 1, patients","human, in vivo",6
same,"Anorexia, CTCAE grade 2, patients","human, in vivo",2
same,"Anorexia, CTCAE grade 3, patients","human, in vivo",2
same,"Anorexia, CTCAE grade 4, patients","human, in vivo",0
same,"Anorexia, patients with events, %","human, in vivo",45%
same,"Arthralgia, CTCAE grade 1, patients","human, in vivo",5
same,"Arthralgia, CTCAE grade 2, patients","human, in vivo",0
same,"Arthralgia, CTCAE grade 3, patients","human, in vivo",0
same,"Arthralgia, CTCAE grade 4, patients","human, in vivo",0
same,"Arthralgia, patients with events, %","human, in vivo",23%
same,"Back pain, CTCAE grade 1, patients","human, in vivo",3
same,"Back pain, CTCAE grade 2, patients","human, in vivo",2
same,"Back pain, CTCAE grade 3, patients","human, in vivo",0
same,"Back pain, CTCAE grade 4, patients","human, in vivo",0
same,"Back pain, patients with events, %","human, in vivo",23%
same,"Blood bilirubin, CTCAE grade 1, patients","human, in vivo",0
same,"Blood bilirubin, CTCAE grade 2, patients","human, in vivo",0
same,"Blood bilirubin, CTCAE grade 3, patients","human, in vivo",1
same,"Blood bilirubin, CTCAE grade 4, patients","human, in vivo",0
same,"Blood bilirubin, patients with events, %","human, in vivo",5%
same,"Bronchitis, CTCAE grade 1, patients","human, in vivo",0
same,"Bronchitis, CTCAE grade 2, patients","human, in vivo",0
same,"Bronchitis, CTCAE grade 3, patients","human, in vivo",1
same,"Bronchitis, CTCAE grade 4, patients","human, in vivo",0
same,"Bronchitis, patients with events, %","human, in vivo",5%
same,"Constipation, CTCAE grade 1, patients","human, in vivo",3
same,"Constipation, CTCAE grade 2, patients","human, in vivo",3
same,"Constipation, CTCAE grade 3, patients","human, in vivo",0
same,"Constipation, CTCAE grade 4, patients","human, in vivo",0
same,"Constipation, patients with events, %","human, in vivo",27%
same,"Cough, CTCAE grade 1, patients","human, in vivo",8
same,"Cough, CTCAE grade 2, patients","human, in vivo",1
